Experiments:
UGT1A1 = biological target: T1, UGT1A1 (Homo sapiens, UniProt P22309); parameters: method as in PMID 29470958; details: read-out: IC50, UGT1A1, previously reported value; cited from earlier work
T1 sequence (P22309 26-533): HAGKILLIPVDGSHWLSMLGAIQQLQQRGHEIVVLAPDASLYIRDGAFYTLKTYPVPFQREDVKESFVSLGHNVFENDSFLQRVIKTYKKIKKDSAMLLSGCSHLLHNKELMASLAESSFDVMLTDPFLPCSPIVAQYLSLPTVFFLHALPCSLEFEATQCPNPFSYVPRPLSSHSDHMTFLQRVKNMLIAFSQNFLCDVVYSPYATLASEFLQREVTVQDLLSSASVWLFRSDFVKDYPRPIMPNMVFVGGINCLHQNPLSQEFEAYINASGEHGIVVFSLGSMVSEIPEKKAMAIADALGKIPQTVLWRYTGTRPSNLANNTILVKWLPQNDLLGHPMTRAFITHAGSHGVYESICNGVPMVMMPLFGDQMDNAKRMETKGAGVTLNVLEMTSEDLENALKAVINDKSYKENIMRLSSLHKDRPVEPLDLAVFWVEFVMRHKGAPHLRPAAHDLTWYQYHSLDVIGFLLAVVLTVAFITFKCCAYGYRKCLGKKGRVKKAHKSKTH

UGT1A3 = biological target: T2, UGT1A3 (Homo sapiens, UniProt P35503); assay: Inhibition of UGT1A3 (chenodeoxycholic acid glucuronidation) in human liver microsomes; assay type: in vitro ADME; details: substrate chenodeoxycholic acid; HLMs
T2 construct: tissue XenoTech XTreme 200; host or cells: pooled human liver microsomes
Method: The ability of selamariscina A to inhibit the metabolism of six UGT enzyme probe substrates was evaluated using previously developed methods with minor modifications. The microsomal incubation was performed by dividing the non-interactive substrate cocktail sets (set A included SN-38 for UGT1A1, CDCA for UGT1A3 and TFP for UGT1A4 while set B included N-SER for UGT1A6, MPA for UGT1A9 and NX for UGT2B7) (Table 2). In brief, HLMs (0.25 mg/mL) were activated by incubation in the presence of alamethicin (25 µg/mL) for 15 min on ice. After the addition of UGT probe substrates and inhibitor (0, 0.5, 2, 5, 20 and 50 μM), the incubation mixtures were pre-incubated at 37 °C for 5 min. […] After centrifugation at 18,000 g (5 min, 4 °C), aliquots of supernatants were analyzed by LC–MS/MS. […]
All metabolites and the IS were separated on a Kinetex XB-C18 column (100 × 2.10 mm, 2.6 μm, 100 Å; Phenomenex, Torrance, CA, USA) and analyzed using a Shimadzu LCMS 8060 triple-quadrupole mass spectrometer coupled with a Nexera X2 ultra high-performance liquid chromatography system (Shimadzu, Kyoto, Japan) equipped with an electrospray ionization interface. […] Quantitation was conducted in selected reaction monitoring (SRM) modes with the precursor-to-product ion transition for each metabolite (Table 1 and Table 2).
We analyzed the data with Shimadzu LabSolution LC–MS software. […]

T2 sequence (P35503 29-534): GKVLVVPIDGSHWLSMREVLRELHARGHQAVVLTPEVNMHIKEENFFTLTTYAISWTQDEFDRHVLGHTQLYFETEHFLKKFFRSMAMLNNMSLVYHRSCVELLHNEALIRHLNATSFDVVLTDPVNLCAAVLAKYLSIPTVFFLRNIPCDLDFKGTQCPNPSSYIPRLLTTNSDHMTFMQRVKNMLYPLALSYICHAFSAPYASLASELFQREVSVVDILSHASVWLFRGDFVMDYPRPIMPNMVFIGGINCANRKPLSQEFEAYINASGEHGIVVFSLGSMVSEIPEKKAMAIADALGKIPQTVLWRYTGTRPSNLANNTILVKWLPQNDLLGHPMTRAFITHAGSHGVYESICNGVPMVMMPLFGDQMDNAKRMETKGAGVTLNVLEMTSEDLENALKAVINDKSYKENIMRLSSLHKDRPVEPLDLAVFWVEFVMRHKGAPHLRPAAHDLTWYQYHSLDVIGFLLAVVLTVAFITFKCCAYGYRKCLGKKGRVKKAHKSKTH

IC50 (UGT1A3) [nM] | SMILES | IC50 (UGT1A1) [nM]
 | O=c1cc(-c2ccc(O)c(-c3c(O)cc(O)c4c(=O)cc(-c5ccc(O)cc5)oc34)c2)oc2cc(O)cc(O)c12 [amentoflavone] | 780
> 50000 | O=C1CC(c2cc(-c3c(O)ccc4c(=O)cc(-c5ccc(O)cc5)oc34)c(O)cc2O)Oc2cc(O)cc(O)c21 (centres unmarked) [selamariscina A] | 

— publication PMC7238120, “Strong and Selective Inhibitory Effects of the Biflavonoid Selamariscina A against CYP2C8 and CYP2C9 Enzyme Activities in Human Liver Microsomes” (Pharmaceutics, 2020)
